Reference: patent US8691218B2, “Vermin extermination using lysozyme, salt or biological fragment thereof, or lysozyme-related peptide as an egg recognition pheromone” (National University Corporation Okayama University, priority 2007, dated 2014)

Test system: Reticulitermes speratus workers (worker termites)
Experiment: egg recognition activity: conveyance of coated mimetic eggs (glass beads) into the egg mass in a petri dish
Format: in vivo
Conditions: lysozyme samples tested on termites
Method: Egg recognition activities of a termite egg extract, lysozyme purified from the termite egg extract, a termite egg extract degraded by proteinase, egg white lysozyme, cellulase, a mixture of egg white lysozyme and cellulase, and 30% glycerin aqueous solution as a control were investigated by using Reticulitermes speratus workers (worker termites).
Each test samples was prepared as follows.
800 μL of ultrapure water was added to 400 mg of Reticulitermes speratus eggs in an Eppendorf tube, and homogenized, and subjected to ultrasonic treatment for 5 minutes, and centrifugation was performed at 15,000 rpm for 30 minutes. The supernatant was lyophilized, and 5.0 mg of the lyophilized powder was dissolved in 100 μL of 30% glycerin aqueous solution (termite egg extract). The termite egg extract prepared in the same manner as described above was purified by BioRex 70 (BioRad Laboratories, CA, USA) cation-exchange resin, and further, lysozyme fractions were isolated by Q-1 column chromatography (BioRad Laboratories, CA, USA) and Methyl HIC column chromatography (BioRad Laboratories, CA, USA), and 1.0 mg of lyophilized powder thereof was dissolved in 20 μL of 30% glycerin aqueous solution (lysozyme isolated from termite egg extract). […]

Substance: lysozyme derived from chicken egg white: egg white lysozyme (SIGMA) dissolved in 30% glycerin aqueous solution
- egg recognition activity of termites: high activity
